ChEMBL document CHEMBL1201862, “PubChem BioAssay data set” (2004)
Active and inactive are the calls of the source.

Columns and labels:
Phospholipase D2 = Phospholipase D2 (Homo sapiens, UniProt O14939); assay: PLD2 inhibitor potency in cells, dose response (AID 602147); type: functional;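 further: cellular assay in HEK293 cells overexpressing GFP-tagged PLD2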
Phospholipase D1 = Phospholipase D1 (Homo sapiens, UniProt Q13393); assay: PLD1 inhibitor potency in cells, dose response (AID 602151); type: functional;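 further: cellular PLD1 assay in Calu-1 cells stimulated with PMA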
Phospholipase D1, sequence (Q13393 whole entry): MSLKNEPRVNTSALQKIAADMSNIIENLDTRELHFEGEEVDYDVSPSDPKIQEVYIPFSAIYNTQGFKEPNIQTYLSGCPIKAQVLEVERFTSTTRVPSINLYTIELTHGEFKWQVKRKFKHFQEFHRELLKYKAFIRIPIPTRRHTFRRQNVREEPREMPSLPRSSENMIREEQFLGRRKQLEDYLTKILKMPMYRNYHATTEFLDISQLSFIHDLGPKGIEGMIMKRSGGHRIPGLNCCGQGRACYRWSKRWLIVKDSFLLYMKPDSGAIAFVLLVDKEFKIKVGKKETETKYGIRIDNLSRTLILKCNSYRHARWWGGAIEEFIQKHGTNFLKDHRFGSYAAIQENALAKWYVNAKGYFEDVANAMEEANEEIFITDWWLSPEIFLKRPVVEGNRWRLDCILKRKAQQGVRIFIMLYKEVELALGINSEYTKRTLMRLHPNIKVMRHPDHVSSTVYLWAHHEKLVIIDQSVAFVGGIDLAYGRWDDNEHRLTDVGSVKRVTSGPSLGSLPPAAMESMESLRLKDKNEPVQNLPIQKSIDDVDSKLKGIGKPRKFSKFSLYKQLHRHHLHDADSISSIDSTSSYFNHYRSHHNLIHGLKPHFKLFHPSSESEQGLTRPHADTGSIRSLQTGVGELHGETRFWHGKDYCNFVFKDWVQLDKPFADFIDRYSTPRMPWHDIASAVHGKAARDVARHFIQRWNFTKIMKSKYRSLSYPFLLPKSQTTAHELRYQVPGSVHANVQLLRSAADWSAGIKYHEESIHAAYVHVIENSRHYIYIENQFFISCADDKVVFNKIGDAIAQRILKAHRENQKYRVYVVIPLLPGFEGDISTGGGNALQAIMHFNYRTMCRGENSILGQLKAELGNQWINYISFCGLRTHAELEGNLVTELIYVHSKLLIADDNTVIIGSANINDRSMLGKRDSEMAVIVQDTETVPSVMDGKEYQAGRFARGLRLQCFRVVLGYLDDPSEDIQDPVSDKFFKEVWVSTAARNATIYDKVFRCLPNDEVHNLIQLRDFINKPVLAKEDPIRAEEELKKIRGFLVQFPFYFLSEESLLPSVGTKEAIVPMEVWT

Beta-galactosidase = Beta-galactosidase (Escherichia coli, UniProt Q8VNN2); assay: PubChem AID 485352; type: functional
Beta-galactosidase, sequence (Q8VNN2 whole entry): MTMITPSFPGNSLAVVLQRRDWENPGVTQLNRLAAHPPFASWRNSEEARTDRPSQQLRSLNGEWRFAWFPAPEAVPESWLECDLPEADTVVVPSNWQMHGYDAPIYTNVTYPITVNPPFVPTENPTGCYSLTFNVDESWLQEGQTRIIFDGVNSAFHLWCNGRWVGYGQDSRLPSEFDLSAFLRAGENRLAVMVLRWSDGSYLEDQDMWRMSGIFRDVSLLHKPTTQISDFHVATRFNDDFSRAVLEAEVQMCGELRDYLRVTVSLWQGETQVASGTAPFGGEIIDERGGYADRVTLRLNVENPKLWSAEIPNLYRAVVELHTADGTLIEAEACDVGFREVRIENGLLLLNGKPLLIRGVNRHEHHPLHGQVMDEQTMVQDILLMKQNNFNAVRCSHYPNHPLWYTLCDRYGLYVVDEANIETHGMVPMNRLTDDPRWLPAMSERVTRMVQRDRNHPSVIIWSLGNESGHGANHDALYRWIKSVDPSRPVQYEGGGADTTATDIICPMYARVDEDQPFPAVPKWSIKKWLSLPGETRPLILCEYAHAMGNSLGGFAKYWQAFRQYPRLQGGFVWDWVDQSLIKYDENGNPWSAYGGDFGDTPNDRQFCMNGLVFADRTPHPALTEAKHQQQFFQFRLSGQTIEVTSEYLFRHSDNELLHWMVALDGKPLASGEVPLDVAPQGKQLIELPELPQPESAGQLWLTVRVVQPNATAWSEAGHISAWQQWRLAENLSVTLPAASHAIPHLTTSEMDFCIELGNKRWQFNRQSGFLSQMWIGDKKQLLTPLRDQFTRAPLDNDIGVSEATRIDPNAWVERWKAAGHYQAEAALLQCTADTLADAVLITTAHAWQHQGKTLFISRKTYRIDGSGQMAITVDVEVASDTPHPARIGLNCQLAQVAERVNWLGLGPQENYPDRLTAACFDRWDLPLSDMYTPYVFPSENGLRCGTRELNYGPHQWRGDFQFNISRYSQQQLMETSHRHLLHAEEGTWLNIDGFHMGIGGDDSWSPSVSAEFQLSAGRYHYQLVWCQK

[1] = molecular target: Mitochondrial peptide methionine sulfoxide reductase (Bos taurus, UniProt P54149); assay: Absorbance-based biochemical high throughput dose response assay for activators of Methionine sulfoxide reductase A (MsrA).; type: functional
Mitochondrial peptide methionine sulfoxide reductase, sequence (P54149 whole entry): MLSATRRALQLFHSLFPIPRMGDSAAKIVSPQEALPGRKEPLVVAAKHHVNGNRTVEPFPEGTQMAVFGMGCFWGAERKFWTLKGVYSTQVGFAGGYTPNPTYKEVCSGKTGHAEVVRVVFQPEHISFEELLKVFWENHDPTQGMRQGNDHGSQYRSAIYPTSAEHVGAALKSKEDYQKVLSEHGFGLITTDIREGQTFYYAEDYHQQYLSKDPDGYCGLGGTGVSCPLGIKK

[2] = molecular target: Type-1 angiotensin II receptor (Homo sapiens, UniProt P30556); assay: AT1 receptor antagonists, dose response, selectivity assay for APJ receptor antagonist project, cell-based, uHTS hits (AID 463214); type: functional;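 further: antagonist potency against angiotensin II stimulated AT1 response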
Type-1 angiotensin II receptor, sequence (P30556 whole entry): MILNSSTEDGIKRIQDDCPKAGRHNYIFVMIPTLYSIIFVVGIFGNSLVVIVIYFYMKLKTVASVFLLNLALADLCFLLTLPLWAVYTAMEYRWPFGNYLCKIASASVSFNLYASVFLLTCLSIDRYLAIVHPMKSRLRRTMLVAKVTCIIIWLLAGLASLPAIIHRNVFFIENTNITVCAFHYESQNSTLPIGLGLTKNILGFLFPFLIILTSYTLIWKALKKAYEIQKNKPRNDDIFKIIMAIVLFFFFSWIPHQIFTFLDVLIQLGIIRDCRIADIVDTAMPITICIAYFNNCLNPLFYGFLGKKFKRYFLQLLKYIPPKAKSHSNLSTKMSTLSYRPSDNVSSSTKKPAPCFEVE

[3] = inhibitors of SNCA 5'UTR-driven reporter translation, confirmation, H4 neuroglioma cells, luminescence (AID 1988); type: functional, cell-based
[4] = inhibitors of firefly luciferase expression or activity, dose response, H4 neuroglioma cells, luminescence (AID 1990); type: functional, cell-based
[5] = Luminescence Cell-Based Dose Response HTS to Identify Inhibitors of 5'UTR Stem-Loop Driven Prion Protein mRNA Translation in H4 Neuroglioblastoma Cells. [Related pubchem assays: 1827 (Project Summary), 1813 (Primary HTS)]; type: functional
Escherichia coli [6] = assay: microbe, parasite or virus in culture
Candida albicans [7] = assay: growth inhibition of azole-resistant C. albicans, dose response, CaCi-8 strain, Alamar Blue, dry powder, set 3 (AID 488905); type: functional, organism-based
Candida albicans [8] = assay: fluconazole resistance reversal in C. albicans, dose response, CaCi-2 strain, Alamar Blue, dry powder, set 4 (AID 488943); type: functional, organism-based
Candida albicans [9] = assay: reversal of fluconazole resistance in C. albicans, dose response, CaCi-2 strain, Alamar Blue, dry powder, set 3 (AID 488907); type: functional, organism-based
Candida albicans [10] = assay: growth inhibition of resistant C. albicans, dose response, CaCi-8 strain, fluconazole, dry powder, set 4 (AID 488950); type: functional, organism-based
[11] = cytotoxicity toward NIH3T3 fibroblasts, dose response, counter-screen, cell-based, ATP luminescence, mouse fibroblasts (AID 2010); type: functional;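 further: cells exposed to compound for about 90 hours before reading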
[12] = molecular target: Latent membrane protein 1 (Human herpesvirus 4 (strain B95-8), UniProt P03230); assay: TES1-eGFP NF-kB reporter inhibition versus Tet-On dsRED, dose response, selectivity assay for LMP1 NF-kB inhibitor project, imaging, HEK293T, dual-color eGFP/dsRED, cherry-picks (AID 588398); type: functional, cell-based
Latent membrane protein 1, sequence (P03230 whole entry): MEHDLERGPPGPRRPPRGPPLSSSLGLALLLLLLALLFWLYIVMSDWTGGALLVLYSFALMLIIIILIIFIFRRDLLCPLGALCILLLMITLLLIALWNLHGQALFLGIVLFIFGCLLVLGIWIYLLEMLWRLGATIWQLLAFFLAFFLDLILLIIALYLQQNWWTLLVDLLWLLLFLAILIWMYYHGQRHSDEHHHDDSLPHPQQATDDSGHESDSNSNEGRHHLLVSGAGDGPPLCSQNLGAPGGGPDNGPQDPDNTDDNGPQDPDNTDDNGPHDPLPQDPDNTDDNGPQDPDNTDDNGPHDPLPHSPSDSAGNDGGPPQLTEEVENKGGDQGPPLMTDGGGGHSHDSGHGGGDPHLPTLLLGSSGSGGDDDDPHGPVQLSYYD

INS1 = assay: beta cell apoptosis inhibitors, cytokine rescue, dose response, luminescence, retest (AID 449756); type: functional, cell-based; conditions: Rattus norvegicus;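 further: cell death triggered by IL-1 beta plus TNF-alpha plus IFN-gamma mixture; protective hits raise ATP signal compared with cytokine alone wells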
HEK293 = assay: inhibitors of LMP1-driven NF-kB reporter, dose response, cell-based, HEK293, luciferase, cherry-pick (AID 588343); type: functional; conditions: Homo sapiens
[13] = inhibitors of intracellular T. cruzi replication, confirmation, NIH3T3 host cells, beta-gal luminescence (AID 2044); type: functional, cell-based;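 further: intracellular parasites grown in NIH/3T3 mouse fibroblasts as host cells; luminescent beta-galactosidase reporter signal from transgenic T. cruzi replicating inside host cells; inhibitors lower the luminescence signal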
[14] = test system: Streptococcus sp. 'group A'; assay: growth inhibition of control SK(-) GAS strain, dose response, counter-screen for streptokinase expression inhibitor project, luminescence, kanamycin, BacTiterGlo, confirmation (AID 1900); type: functional, organism-based
Streptokinase A = molecular target: T1, Streptokinase A (Streptococcus pyogenes serotype M1, UniProt P10520); assay: S. pyogenes streptokinase expression inhibitors, potency, dose response, plasminogen activation absorbance, OD405 (AID 1914); type: functional, Streptococcus pyogenes M1 GAS;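 further: secreted streptokinase activity via plasminogen activation per viability signal from cell pellet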
T1 sequence (P10520 whole entry): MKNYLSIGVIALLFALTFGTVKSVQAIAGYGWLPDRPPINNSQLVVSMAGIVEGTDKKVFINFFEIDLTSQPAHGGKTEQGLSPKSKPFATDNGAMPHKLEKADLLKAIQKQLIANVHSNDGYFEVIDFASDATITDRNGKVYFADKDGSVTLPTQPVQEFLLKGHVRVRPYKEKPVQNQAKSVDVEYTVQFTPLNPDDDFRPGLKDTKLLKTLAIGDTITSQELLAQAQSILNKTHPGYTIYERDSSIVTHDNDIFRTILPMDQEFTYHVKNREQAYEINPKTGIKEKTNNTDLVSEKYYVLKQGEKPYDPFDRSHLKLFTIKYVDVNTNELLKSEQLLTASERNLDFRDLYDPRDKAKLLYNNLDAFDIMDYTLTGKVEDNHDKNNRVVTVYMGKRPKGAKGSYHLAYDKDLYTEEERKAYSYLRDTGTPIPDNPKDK

Streptococcus = assay: Group A Streptococcus viability loss, dose response, counter-screen for streptokinase expression inhibitor project, luminescence, BacTiterGlo (AID 1915); type: functional, organism-based;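 further: potency for reduction of bacterial viability or growth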
Hexokinase-1 = Hexokinase-1 (Homo sapiens, UniProt P19367); assay: HK1 enzyme inhibition by HKDC1 hits, SAR follow-up, selectivity assay for HKDC1 inhibitor project, biochemical, set 2, resazurin fluorescence coupled readout (AID 588356); type: functional
Hexokinase-1, sequence (P19367 whole entry): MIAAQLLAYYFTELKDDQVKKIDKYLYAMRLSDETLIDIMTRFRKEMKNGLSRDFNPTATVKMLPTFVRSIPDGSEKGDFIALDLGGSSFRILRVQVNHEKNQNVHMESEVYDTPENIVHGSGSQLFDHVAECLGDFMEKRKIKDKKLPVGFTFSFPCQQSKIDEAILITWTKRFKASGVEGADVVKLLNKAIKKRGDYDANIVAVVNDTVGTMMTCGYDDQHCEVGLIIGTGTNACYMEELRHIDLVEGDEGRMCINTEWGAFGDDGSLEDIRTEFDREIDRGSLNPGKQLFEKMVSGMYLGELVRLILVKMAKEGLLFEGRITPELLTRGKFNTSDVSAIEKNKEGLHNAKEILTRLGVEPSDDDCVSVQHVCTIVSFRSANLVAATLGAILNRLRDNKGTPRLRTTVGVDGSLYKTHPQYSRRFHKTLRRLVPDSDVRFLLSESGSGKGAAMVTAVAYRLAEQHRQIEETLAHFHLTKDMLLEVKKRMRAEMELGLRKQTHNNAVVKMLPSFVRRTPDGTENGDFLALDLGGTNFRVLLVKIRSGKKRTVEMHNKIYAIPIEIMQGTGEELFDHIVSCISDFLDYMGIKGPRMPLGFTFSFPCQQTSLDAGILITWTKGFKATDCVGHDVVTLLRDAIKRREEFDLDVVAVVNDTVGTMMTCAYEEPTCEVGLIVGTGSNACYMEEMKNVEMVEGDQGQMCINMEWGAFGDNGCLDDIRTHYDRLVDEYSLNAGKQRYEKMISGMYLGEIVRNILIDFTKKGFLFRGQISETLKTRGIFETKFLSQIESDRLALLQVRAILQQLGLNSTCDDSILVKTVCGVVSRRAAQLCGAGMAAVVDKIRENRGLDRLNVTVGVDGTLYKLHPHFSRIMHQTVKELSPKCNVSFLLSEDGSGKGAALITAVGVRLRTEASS

Hexokinase HKDC1 = molecular target: T2, Hexokinase HKDC1 (Homo sapiens, UniProt Q2TB90); assay: HKDC1 hexokinase inhibitors, SAR follow-up, biochemical, set 2 (AID 588355); type: functional
T2 sequence (Q2TB90 whole entry): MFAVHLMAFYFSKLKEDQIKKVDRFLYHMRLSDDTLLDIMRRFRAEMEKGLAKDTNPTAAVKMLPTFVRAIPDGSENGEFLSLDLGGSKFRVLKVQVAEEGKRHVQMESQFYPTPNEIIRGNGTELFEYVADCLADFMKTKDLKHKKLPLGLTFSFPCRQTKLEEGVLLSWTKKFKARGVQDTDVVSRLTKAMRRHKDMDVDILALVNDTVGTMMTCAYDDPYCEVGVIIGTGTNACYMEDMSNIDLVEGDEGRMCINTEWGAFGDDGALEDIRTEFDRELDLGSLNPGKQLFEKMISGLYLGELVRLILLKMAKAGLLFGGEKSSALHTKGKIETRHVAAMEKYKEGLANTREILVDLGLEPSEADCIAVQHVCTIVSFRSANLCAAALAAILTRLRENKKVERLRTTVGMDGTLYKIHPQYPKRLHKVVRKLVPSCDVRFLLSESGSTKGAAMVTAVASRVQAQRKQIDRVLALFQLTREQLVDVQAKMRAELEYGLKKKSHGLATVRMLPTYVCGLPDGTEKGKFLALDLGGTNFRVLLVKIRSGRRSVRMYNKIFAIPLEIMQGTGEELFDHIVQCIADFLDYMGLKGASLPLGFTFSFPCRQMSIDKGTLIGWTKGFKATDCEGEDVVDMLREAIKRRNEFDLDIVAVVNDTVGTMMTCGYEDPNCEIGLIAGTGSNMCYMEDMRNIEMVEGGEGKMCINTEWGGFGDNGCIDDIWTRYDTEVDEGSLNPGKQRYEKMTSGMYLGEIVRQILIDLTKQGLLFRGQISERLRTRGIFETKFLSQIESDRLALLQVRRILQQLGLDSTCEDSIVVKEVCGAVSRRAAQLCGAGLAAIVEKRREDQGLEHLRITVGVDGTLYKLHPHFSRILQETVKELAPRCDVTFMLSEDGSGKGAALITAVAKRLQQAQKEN

Escherichia coli [15] = assay: microbe, parasite or virus in culture; remark: listed apart in the source

Phospholipase D2, sequence (O14939 whole entry): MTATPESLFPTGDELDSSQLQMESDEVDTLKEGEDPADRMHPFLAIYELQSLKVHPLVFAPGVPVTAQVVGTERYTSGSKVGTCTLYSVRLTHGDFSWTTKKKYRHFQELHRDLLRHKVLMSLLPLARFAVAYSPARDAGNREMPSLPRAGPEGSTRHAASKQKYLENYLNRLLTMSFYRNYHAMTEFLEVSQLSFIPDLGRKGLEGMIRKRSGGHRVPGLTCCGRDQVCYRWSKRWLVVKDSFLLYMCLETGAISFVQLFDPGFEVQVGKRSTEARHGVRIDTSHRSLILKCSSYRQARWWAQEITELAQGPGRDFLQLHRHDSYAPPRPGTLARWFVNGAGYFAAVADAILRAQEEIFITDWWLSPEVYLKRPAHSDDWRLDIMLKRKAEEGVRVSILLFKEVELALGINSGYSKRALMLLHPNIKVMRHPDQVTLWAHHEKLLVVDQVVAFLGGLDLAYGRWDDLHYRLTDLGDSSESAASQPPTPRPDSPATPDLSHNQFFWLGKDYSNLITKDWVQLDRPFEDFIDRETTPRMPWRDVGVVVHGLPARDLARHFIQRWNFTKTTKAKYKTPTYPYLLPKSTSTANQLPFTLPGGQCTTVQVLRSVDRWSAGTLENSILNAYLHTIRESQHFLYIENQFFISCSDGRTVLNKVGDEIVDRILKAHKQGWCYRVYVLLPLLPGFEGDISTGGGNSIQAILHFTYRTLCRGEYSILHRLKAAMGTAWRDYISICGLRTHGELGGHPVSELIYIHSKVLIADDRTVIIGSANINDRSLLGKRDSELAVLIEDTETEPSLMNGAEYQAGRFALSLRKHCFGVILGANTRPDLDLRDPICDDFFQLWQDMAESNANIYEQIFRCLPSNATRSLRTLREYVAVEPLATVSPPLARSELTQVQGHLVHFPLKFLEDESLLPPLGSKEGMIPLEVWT

For C[C@@H](CN1CCC2(CC1)C(=O)NCN2c1ccc(F)c(F)c1)NC(=O)c1ccc(F)cc1, the IC50 (Phospholipase D2) was 0.26 µM (active) and the IC50 (Phospholipase D1) was 0.104 µM (active).
For O=C1c2ccccc2-c2nnc(-c3ccccc3)cc21, the EC50 (Beta-galactosidase) was > 40 µM (inactive), the EC50 [1] was > 104 µM (inactive) and the IC50 [2] was 7.43 µM (active).
In the case of O=C(O)CCCc1nc(-c2ccc(Cl)cc2)no1, the EC50 [3] is reported as 16.2 µM (active), the EC50 [4] is reported as 27.1 µM (active) and the EC50 [5] is reported as 23.1 µM (active). The AC50 (Escherichia coli [6]) was 39 µM (active).
With Cc1ccc(N2CCN(C(=O)c3ccc(Cl)cc3)CC2)nn1 the AC50 (Candida albicans [7]) was 103 µM (active), the AC50 (Candida albicans [8]) was 1.64 µM (active) and the AC50 (Candida albicans [9]) was 8.19 µM (active). The AC50 (Candida albicans [10]) was 4.41 µM (active).
For CCCc1sc(N/N=C/c2ccccn2)nc1-c1ccc(Br)cc1, the EC50 [11] was 2.38 µM (active), the AC50 [12] was 32.3 µM (active) and the AC50 (INS1) was 8.41 µM (active). For the same molecule, the AC50 (HEK293) was 22.3 µM (active), the EC50 [13] was 0.202 µM (active) and the EC50 [14] was 0.442 µM (active). The EC50 (Streptokinase A) was > 150 µM (not active) and the EC50 (Streptococcus) was 8.45 µM (active).
In the case of COc1ccc2c(c1)C(NC(C)=O)C(=O)N2Cc1ccccc1 (centres undefined), the IC50 (Hexokinase-1) is reported as > 80 µM (inactive) and the IC50 (Hexokinase HKDC1) is reported as > 80 µM (inactive).
In the case of Cc1nnc(SCc2ccccc2CSc2nnc(C)s2)s1, the AC50 (Escherichia coli [15]) is reported as 111 µM (active).
